Experimental data as given in US9139551B2, “Preparation of a new class of water-soluble ammonium 2,3-dihydroxy-5-((2R,3R)-3,5,7-trihydroxy-4-oxochroman-2-yl) phenolates and their biological activity of alcohol elimination” (priority 2014, dated 2015).

Key:
Balb/C mice [1] = assay: Anti-alcoholism test (agent 30 min after alcohol); type: in vivo; conditions: 2 mg/kg gavage 30 min after 30% ethanol
Description: Anti-Alcoholism Tests • Groups design and treatment before experiment are as the same as that in Deintoxication test. […]

Balb/C mice [2] = assay: Climbing net test; type: in vivo; conditions: 2 mg/kg gavage 30 min before alcohol
Protocol: Climbing Net Test • Groups design and treatment before experiment are as the same as that in deintoxication test. […] 30 minutes later all mice administrated alcohol (liquid Erguotou, ethonol concentration was diluted to 30%) 0.2 mL/kg BW and placed on a vertical metal net and measured the time when mice climbed on net.

Balb/C mice [3] = assay: Deintoxication test (agent 30 min before alcohol); conditions: 2 mg/kg gavage 30 min before 30% ethanol
Balb/C mice [4] = assay: Plasma EtOH concentration assay; type: in vivo; conditions: intragastric 2 mg/kg
Protocol: Plasma EtOH Concentration Assay. • Blood samples from the tail vein of mice at different time points (0, 15, 30, 45, 60, 90, 120, 240, 480 and 720 minutes) after EtOH (30% ethanol, 0.2 ml/kg bw) or TDHM (2 mg/kg bw), PDHM (2 mg/kg bw) or DHM (2 mg/kg bw) gavage were collected for plasma EtOH concentrations (plasma [EtOH]) assays. (“BW” or “bw”: body weight) • Briefly, the Balb/C mice were put into a restraint tube and the tail was warmed at 37° C. The tail vein at the tip of the tail was punched with a sharp blade. Approximately 0.2 ml venous blood was dropped to a capillary blood collection tube containing lithium heparin (Ram Scientific). Blood samples were centrifuged at 2500 rpm for 20 min. The supernatant was collected and stored at −80° C. until assay. The EtOH content of each blood sample was measured in duplicate along with EtOH standards using the alcohol oxidase reaction procedures (EnzyChrom™ Ethanol Acid Assay Kit, ECET-100) (Liang et al., 2007). The sample preparations were the same as described above.

O=C1c2c(O)cc(O)cc2O[C@H](c2cc(O)c(O)c(O)c2)[C@H]1O [DHM, dihydromyricetin, reference compound]
Sleep time M ± SD (Balb/C mice [1]): 138.17 ± 33.73 min | Tolerance time M ± SD (Balb/C mice [1]): 18.29 ± 10.07 min | Rate of drunk (Balb/C mice [1]; 20 mice): 0% | climbing time vs normal control mice (Balb/C mice [2]): significantly prolonged | climbing (Balb/C mice [2]; vertical metal net): 329.75 ± 76.46 min | Sleep time M ± SD (Balb/C mice [3]): 135.71 ± 25.25 min | Tolerance time M ± SD (Balb/C mice [3]): 25 ± 7.29 min | Dead number (Balb/C mice [3]; 20 mice): 2 piece | Rate of drunk (Balb/C mice [3]; 20 mice): 10% | solubility (Solubility in water): ≤ 264 µg/mL | blood alcohol concentration vs control group treated with saline (Balb/C mice [4]): significantly decreased
